This note sets out measurements from patent US9399626B2, “2-thiopyrimidinones” (Pfizer Inc., priority 2011, dated 2016).

Where a name gives a salt, the structure may show the parent alone.

For the first assay, the target named is T1, MPO (purified from human polynuclear leukocytes) (Homo sapiens, UniProt P05164).
T1 construct: purified from human polynuclear leukocytes; purchased Calbiochem/EMD Biosciences; host or cells: human polynuclear leukocytes (natural source)
T1 sequence (P05164 279-745 limits assumed): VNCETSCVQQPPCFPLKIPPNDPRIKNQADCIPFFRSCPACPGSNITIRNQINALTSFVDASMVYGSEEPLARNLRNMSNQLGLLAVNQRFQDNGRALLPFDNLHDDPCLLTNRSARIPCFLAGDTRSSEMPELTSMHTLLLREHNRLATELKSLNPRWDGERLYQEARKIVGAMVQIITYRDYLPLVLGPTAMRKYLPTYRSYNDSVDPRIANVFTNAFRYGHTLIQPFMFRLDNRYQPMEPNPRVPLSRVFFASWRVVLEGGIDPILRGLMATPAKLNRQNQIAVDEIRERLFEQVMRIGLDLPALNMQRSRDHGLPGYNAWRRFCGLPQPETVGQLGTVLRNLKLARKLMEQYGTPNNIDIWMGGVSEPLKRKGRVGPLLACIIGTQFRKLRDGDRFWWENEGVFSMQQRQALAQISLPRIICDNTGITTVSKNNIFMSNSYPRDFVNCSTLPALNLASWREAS
T1 sequence (P05164 165-273 limits assumed): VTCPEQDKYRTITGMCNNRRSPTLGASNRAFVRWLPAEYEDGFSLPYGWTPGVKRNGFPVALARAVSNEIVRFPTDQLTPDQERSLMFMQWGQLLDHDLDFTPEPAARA
Kind of assay: MPO Amplex Red Activity Assay. The class given is biochemical. The note with it: Table 1, 2 μM H2O2, pH 7.4. In outline:
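Human leukocyte MPO […] oxidises 30 μM Amplex Red with 2 μM H2O2 in 50 mM NaPi pH 7.4, 150 mM NaCl, 1 mM DTPA, 2% DMSO. Resorufin fluorescence (ex 530/em 580 nm) read every 20 s, minus catalase background. kobs from the first 600 s, corrected for auto-inactivation, fit versus [I] for kinact/KI.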
Consider `COCCn1c(-c2ccccc2OC)cc(=O)[nH]c1=S` [Example 160, 1-(2-methoxyethyl)-6-(2-methoxyphenyl)-2-thioxo-2,3-dihydropyrimidin-4(1H)-one], for which the “MPO kinact/Ki” value was 7540 1/s per M.
On the same count and under the same terms, with `COc1cc(F)ccc1-c1cc(=O)[nH]c(=S)n1CCO` [Example 27, 6-(4-fluoro-2-methoxyphenyl)-1-(2-hydroxyethyl)-2-thioxo-2,3-dihydropyrimidin-4(1H)-one] the figure was 15800 1/s per M; with `COc1ccc(-c2cc(=O)[nH]c(=S)n2CCN)c2ccccc12` [Example 185, 1-(2-aminoethyl)-6-(4-methoxy-1-naphthyl)-2-thioxo-2,3-dihydropyrimidin-4(1H)-one hydrochloride], 9740 1/s per M.
Consider `COc1ccc(OC)c(-c2cc(=O)[nH]c(=S)n2CCCN)c1` [Example 87, 1-(3-aminopropyl)-6-(2,5-dimethoxyphenyl)-2-thioxo-2,3-dihydropyrimidin-4(1H)-one hydrochloride], for which the “MPO kinact/Ki” value is recorded as 15400 1/s per M.
For `COc1ccc(C)cc1-c1cc(=O)[nH]c(=S)n1CCO` [Example 161, 1-(2-hydroxyethyl)-6-(2-methoxy-5-methylphenyl)-2-thioxo-2,3-dihydropyrimidin-4(1H)-one], the “MPO kinact/Ki” value is listed as 29600 1/s per M.
Take `COCCn1c(-c2cnc(N(C)C)cc2OC)cc(=O)[nH]c1=S` [Example 338, 6-[6-(dimethylamino)-4-methoxypyridin-3-yl]-1-(2-methoxyethyl)-2-thioxo-2,3-dihydropyrimidin-4(1H)-one]: the “MPO kinact/Ki” value is given as 1280 1/s per M.
As for `COCCn1c(-c2ccc(OC)c3nc(C)ccc23)cc(=O)[nH]c1=S` [Example 345, 1-(2-methoxyethyl)-6-(8-methoxy-2-methylquinolin-5-yl)-2-thioxo-2,3-dihydropyrimidin-4(1H)-one], the “MPO kinact/Ki” value was 946 1/s per M.
Consider `COc1ccc(-c2cc(=O)[nH]c(=S)n2C[C@@H](O)CO)c(OC)c1` [Example 204, 1-[(2R)-2,3-dihydroxypropyl]-6-(2,4-dimethoxyphenyl)-2-thioxo-2,3-dihydropyrimidin-4(1H)-one], for which the “MPO kinact/Ki” value is 3900 1/s per M.
`COc1ccc(Cl)cc1-c1cc(=O)[nH]c(=S)n1CCN` [Example 63, 1-(2-aminoethyl)-6-(5-chloro-2-methoxyphenyl)-2-thioxo-2,3-dihydropyrimidin-4(1H)-one hydrochloride]: the “MPO kinact/Ki” value was 12200 1/s per M.

The assay is the same for the next values; noted with them: Table 1A, 2 μM H2O2, pH 7.4.
On to `NC(=O)Cn1c(-c2cc(Cl)ccc2O)cc(=O)[nH]c1=S` [Example 377, 2-[6-(5-chloro-2-hydroxyphenyl)-4-oxo-2-thioxo-3,4-dihydropyrimidin-1(2H)-yl]acetamide], for which the “MPO kinact/Ki” value is 8770 1/s per M.
Same read-out and setting: next, `COc1ccc(-c2cc(=O)[nH]c(=S)n2CC(=O)N2CC[C@@H](N)C2)c(OC)c1` [Example 389, 1-{2-[(3R)-3-aminopyrrolidin-1-yl]-2-oxoethyl}-6-(2,4-dimethoxyphenyl)-2-thioxo-2,3-dihydropyrimidin-4(1H)-one]: 4910 1/s per M.
Still for that read-out and setting: with `COc1ccc(-c2cc(=O)[nH]c(=S)n2CCNC(=O)NC(=N)N)c(OC)c1` [Example 452, 1-carbamimidoyl-3-{2-[6-(2,4-dimethoxyphenyl)-4-oxo-2-thioxo-3,4-dihydropyrimidin-1(2H)-yl]ethyl}urea] the figure was 11600 1/s per M; with `COc1ccc(OCCO)cc1-c1cc(=O)[nH]c(=S)n1CC(N)=O` [Example 422, 2-{6-[5-(2-hydroxyethoxy)-2-methoxyphenyl]-4-oxo-2-thioxo-3,4-dihydropyrimidin-1(2H)-yl}acetamide], 4460 1/s per M; with `COc1ccc(-c2cc(=O)[nH]c(=S)n2CCC(=O)NC(=N)N)c(OC)c1` [Example 446, N-carbamimidoyl-3-{6-(2,4-dimethoxyphenyl)-4-oxo-2-thioxo-3,4-dihydropyrimidin-1(2H)-yl]propanamide], 14200 1/s per M.
